Experimental data: PubChem BioAssay (NCI)
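Five concentrations, 48 hours, 96-well plates. At the GI50, growth is halved. TGI marks complete inhibition of growth.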

How the values were obtained:
Test in all cases: growth of human tumour cells (NCI), 48 h
[1] = tested on: NCI-H522 lung
[2] = tested on: BT-549 breast
[3] = tested on: CAKI-1 renal
[4] = tested on: HCT-15 colon
[5] = tested on: OVCAR-8 ovarian
[6] = tested on: RXF 393 renal
[7] = tested on: SF-539 CNS
[8] = tested on: HOP-92 NSCLC
[9] = tested on: DU-145 prostate
[10] = tested on: NCI-H460 lung
[11] = tested on: CCRF-CEM leukemia
[12] = tested on: NCI-H23 lung
[13] = tested on: SK-MEL-28 melanoma
[14] = tested on: RPMI-8226 leukemia
[15] = tested on: KM12 colon
[16] = tested on: COLO 205 colon
[17] = tested on: PC-3 prostate
[18] = tested on: HCT-116 colon
[19] = tested on: SR leukemia
[20] = tested on: SF-295 CNS
[21] = tested on: SK-OV-3 ovarian
[22] = tested on: IGROV1 ovarian
[23] = tested on: LOX IMVI melanoma
[24] = tested on: MDA-MB-231 breast
[25] = tested on: NCI-H226 lung
[26] = tested on: NCI/ADR-RES ovarian
[27] = tested on: M14 melanoma
[28] = tested on: A549 NSCLC
[29] = tested on: U251 CNS
[30] = tested on: UACC-257 melanoma
[31] = tested on: SF-268 CNS
[32] = tested on: HCC-2998 colon
[33] = tested on: MDA-MB-435
[34] = tested on: OVCAR-5 ovarian
[35] = tested on: HT29 colon
[36] = tested on: SK-MEL-5 melanoma
[37] = tested on: OVCAR-4 ovarian
[38] = tested on: TK-10 renal
[39] = tested on: T-47D breast
[40] = tested on: SNB-75 CNS
[41] = tested on: MCF7 breast
[42] = tested on: MOLT-4 leukemia
[43] = tested on: SK-MEL-2 melanoma
[44] = tested on: SNB-19 CNS
[45] = tested on: HS 578T breast
[46] = tested on: MALME-3M melanoma
[47] = tested on: UO-31 renal
[48] = tested on: 786-0 renal
[49] = tested on: SW-620 colon
[50] = tested on: A498 renal
[51] = tested on: SN12C renal
[52] = tested on: K-562 leukemia
[53] = tested on: ACHN renal
[54] = tested on: UACC-62 melanoma
[55] = tested on: HOP-62 NSCLC

`C[C@]12CC[C@@H]3c4ccc(O)cc4CC[C@H]3[C@@H]1CC[C@@H]2NS(=O)(=O)c1ccc(C(F)(F)F)cc1` showed a GI50 [1] of 1.69 µM, a TGI [1] of 3.85 µM and a GI50 [2] of 1.7 µM. The TGI [2] was 3.2 µM, the GI50 [3] was 2.78 µM and the TGI [3] was 8.06 µM. The GI50 [4] was 1.68 µM, the TGI [4] was 3.62 µM and the GI50 [5] was 2.54 µM. The TGI [5] was 6.95 µM, the GI50 [6] was 1.63 µM and the TGI [6] was 3.13 µM. For the same compound, the GI50 [7] was 1.6 µM, the TGI [7] was 2.97 µM and the GI50 [8] was 1.51 µM. It also gave a TGI [8] of 3.28 µM, a GI50 [9] of 2.75 µM and a TGI [9] of 7.11 µM. It also gave a GI50 [10] of 1.98 µM, a TGI [10] of 4.11 µM and a GI50 [11] of 2.77 µM. It also gave a TGI [11] of 9.8 µM, a GI50 [12] of 2.08 µM and a TGI [12] of 5.43 µM. For the same compound, the GI50 [13] was 1.68 µM, the TGI [13] was 3.08 µM and the GI50 [14] was 2.51 µM. For the same compound, the TGI [14] was 6.79 µM, the GI50 [15] was 1.87 µM and the TGI [15] was 3.57 µM. It also gave a GI50 [16] of 1.83 µM, a TGI [16] of 3.38 µM and a GI50 [17] of 1.99 µM. The TGI [17] was 5.24 µM, the GI50 [18] was 1.74 µM and the TGI [18] was 3.19 µM. The GI50 [19] was 2.43 µM, the TGI [19] was 7.5 µM and the GI50 [20] was 1.91 µM. The TGI [20] was 3.9 µM, the GI50 [21] was 2.53 µM and the TGI [21] was 6.21 µM. For the same compound, the GI50 [22] was 2.45 µM, the TGI [22] was 6.23 µM and the GI50 [23] was 1.68 µM. The TGI [23] was 3.06 µM, the GI50 [24] was 1.74 µM and the TGI [24] was 3.31 µM. The GI50 [25] was 1.68 µM, the TGI [25] was 3.2 µM and the GI50 [26] was 2.17 µM. The TGI [26] was 5.7 µM, the GI50 [27] was 1.9 µM and the TGI [27] was 3.6 µM. For the same compound, the GI50 [28] was 2.05 µM, the TGI [28] was 4.98 µM and the GI50 [29] was 1.75 µM. The TGI [29] was 3.3 µM, the GI50 [30] was 2.59 µM and the TGI [30] was 7.57 µM. For the same compound, the GI50 [31] was 3.1 µM, the TGI [31] was 11.8 µM and the GI50 [32] was 2.11 µM. It also gave a TGI [32] of 4.37 µM, a GI50 [33] of 2.12 µM and a TGI [33] of 5 µM. It also gave a GI50 [34] of 1.7 µM, a TGI [34] of 3.26 µM and a GI50 [35] of 2.01 µM. The TGI [35] was 3.94 µM, the GI50 [36] was 1.7 µM and the TGI [36] was 3.07 µM. For the same compound, the GI50 [37] was 1.42 µM, the TGI [37] was 2.78 µM and the GI50 [38] was 3.28 µM. The TGI [38] was 8.53 µM, the GI50 [39] was 2.68 µM and the TGI [39] was 6.32 µM. It also gave a GI50 [40] of 1.67 µM, a TGI [40] of 3.6 µM and a GI50 [41] of 2.26 µM. For the same compound, the TGI [41] was 5 µM, the GI50 [42] was 2.61 µM and the TGI [42] was 12.7 µM. For the same compound, the GI50 [43] was 2.13 µM, the TGI [43] was 4 µM and the GI50 [44] was 3.28 µM. The TGI [44] was 11.6 µM, the GI50 [45] was 2.23 µM and the TGI [45] was 6.01 µM. For the same compound, the GI50 [46] was 2.03 µM, the TGI [46] was 4.37 µM and the GI50 [47] was 1.6 µM. For the same compound, the TGI [47] was 3.43 µM, the GI50 [48] was 1.95 µM and the TGI [48] was 3.77 µM. The GI50 [49] was 3.23 µM, the TGI [49] was 10.8 µM and the GI50 [50] was 1.25 µM. For the same compound, the TGI [50] was 2.74 µM, the GI50 [51] was 1.75 µM and the TGI [51] was 3.36 µM. For the same compound, the GI50 [52] was 3.16 µM, the TGI [52] was 8.69 µM and the GI50 [53] was 1.63 µM. The TGI [53] was 3.06 µM, the GI50 [54] was 1.83 µM and the TGI [54] was 3.55 µM. The GI50 [55] was 2 µM and the TGI [55] was 3.7 µM.
